# Columns and labels:
# [1] = system: ZR75-1 (HER2++) (Trastuzumab resistant); experiment: In vitro cytotoxicity of ADCs; assay type: cell-based; conditions: Homo sapiens, ZR-75-1; 72 hour incubation
# Method: (§1) The resulting ADCs were evaluated in vitro against relevant antigen positive cell-lines.
# MCF-7 (HER2−) = experiment: In vitro cytotoxicity of ADCs; assay type: cell-based; conditions: Homo sapiens, MCF7; 72 hour incubation
# Method: as §1
# SK-BR-3 (HER2+++) = experiment: In vitro cytotoxicity of ADCs; assay type: cell-based; conditions: Homo sapiens, 72 hour incubation
# Method: as §1
# [2] = system: EC Cancer Stem Cell (Cancer stem cells); experiment: In vitro cytotoxicity of 41, cancer cell-line panel; assay type: cell-based; conditions: 72 hour incubation
# Method: (§2) Tumor cell lines were maintained in RPMI1640 medium supplemented with 10% heat-inactivated fetal bovine serum, 2 mM L-glutamine and 1 mM sodium pyruvate. 1800 cells per well were seeded in a volume of 180 μl in a 96-well flat bottom polystyrene plate. The cells were allowed to adhere overnight at 37° C. in a CO2 incubator. Ligands were initially formulated in DMSO, and stocks stored at −80° C. They were then further formulated at lox concentration in RPMI1640 medium. 20 ul of diluted samples were added into each treatment well. On each plate, blank wells with no cells, and untreated wells containing cells, were included. Plates were then cultured at 37° C. in a CO2 incubator for 72 hrs. Cytotoxicity was evaluated using a tetrazolium salt-based assay, the MIT assay. After 72 hours, the supernatant was removed from each well and 200 μl of a sterile filtered 500 μg/ml MTT solution in water added to each well. The plates were then incubated at 37° C. in a CO2 incubator for 4 hrs. The supernatant was then removed and the formazan crystals formed solubilized by adding 15(411 of DMSO to each well. The plate was then read on a plate reader at 540 nm, and percentage cell survival calculated as follows: ((mean absorbance treated wells at concentration x−mean absorbance blank wells)÷(mean absorbance untreated wells at concentration x−mean absorbance blank wells))×100. Data were plotted as concentration in nM vs. % cell survival in Microsoft Excel, and IC50 values (concentration where cell survival is reduced by a half) were determined from the graph.
# A549 (Lung) = experiment: as above; assay type: cell-based; conditions: Homo sapiens, 72 hour incubation
# Method: as §2
# BxPC3 (Pancreas) = experiment: as above; assay type: cell-based; conditions: Homo sapiens, BXPC-3; 72 hour incubation
# Method: as §2
# SK-HEP-1 (Liver) = experiment: as above; assay type: cell-based; conditions: Homo sapiens, SK-HEP1; 72 hour incubation
# Method: as §2
# A375 (Skin) = experiment: as above; assay type: cell-based; conditions: Homo sapiens, A-375; 72 hour incubation
# Method: as §2
# SW480 (Colorectal) = experiment: as above; assay type: cell-based; conditions: Homo sapiens, 72 hour incubation
# Method: as §2
# AGS (Gastric) = experiment: as above; assay type: cell-based; conditions: 72 hour incubation
# Method: as §2
# SK-MEL-5 (Melanoma) = experiment: as above; assay type: cell-based; conditions: Homo sapiens, 72 hour incubation
# Method: as §2
# AML2 (AML) = experiment: as above; assay type: cell-based; conditions: 72 hour incubation
# Method: as §2
# PC3 (Prostate) = experiment: as above; assay type: cell-based; conditions: 72 hour incubation
# Method: as §2
# Calu-3 (Lung) = experiment: as above; assay type: cell-based; conditions: Homo sapiens, 72 hour incubation
# Method: as §2
# LnCap (Prostate) = experiment: as above; assay type: cell-based; conditions: Homo sapiens, 72 hour incubation
# Method: as §2
# 786-O (Renal Cell, CD70) = experiment: as above; assay type: cell-based; conditions: Homo sapiens, 786-0; 72 hour incubation
# Method: as §2
# HL60 (APML) = experiment: as above; assay type: cell-based; conditions: Homo sapiens, HL-60; 72 hour incubation
# Method: as §2
# [3] = system: fluorescently labelled DNA duplex 5′-AAAAAAAGAAATTTAAA-3′; experiment: FRET DNA melting of fluorescently labelled duplex; assay type: binding; conditions: fragments of 41, FIG. 12B
# Description: FRET DNA melting studies were undertaken on a fluorescently labelled duplex DNA sequence reacted with 41 and fragmented forms of the molecule (i.e, using intermediates 106, […] and 148). The sequence (FIG. 10) was designed to provide additional evidence that 41 can effectively stabilise a particular DNA sequence derived through the Footprinting studies (i.e., XGXWWWW where X represents any base, G represents guanine and W indicates adenine or thymine). […] The labels were fluorescein (F) and dabcyl (Q).
# Oligonucleotides were obtained from ATDbio (Southampton, UK) in lyophilised form. They were labelled with a fluorophore molecule (F=fluorescein) at the 5′-end and a quencher molecule (Q=dabcyl) at the 3′-end of the complementary strand. Each oligonucleotide was dissolved in distilled H2O to form stock solutions of 100 μM. Working solutions of 5 μM were prepared by diluting the stock solution with distilled H2O.
# The following buffers were used: 250 mM phosphate buffer pH 7.4 (consisting of sodium dihydrogen phosphate and sodium phosphate diluted in distilled H2O) and 5 M sodium chloride buffer. All buffers and distilled H2O were filtered through a 0.2 VIM filter prior to use.
# For the FRET experiments stock solutions of 41, 106, 107 and 148 were prepared by dissolving the compounds in DMSO to give a concentration of 10 mM. From this stock solution, working solutions of the desired concentration were prepared by diluting the stock solution with distilled H2O.
# The reaction mixture was comprised of 4 μL of 250 mM phosphate buffer (final concentration of 50 mM), 4 μL flourophor and 4 μL quencher molecule of the appropriate oligonucleotide for a final concentration of 0.2 μM, 4 μL 5 M sodium chloride (final concentration of 1 M NaCl), and 4 μL of distilled H2O. […] This mixture was analysed without prior annealing.
# Fluorescence melting profiles were measured using a Roche LightCycler using a total reaction volume of 20 μL. […] Annealing steps and melting steps were all recorded and changes in fluorescence were measured at 520 nm. […]
# [4] = in vivo; cited from earlier work
structure (smiles),measurement,setting,value
"COc1cc2c(cc1OCCCC(=O)Nc1cc(C(=O)Nc3ccc(-c4cc(C(=O)Nc5ccc(N)cc5)n(C)c4)cc3)n(C)c1)N=C[C@@H]1CCCCN1C2=O [Compound 41, (S)—N-(4-aminophenyl)-4-(4-(4-(4-((2-methoxy-12-oxo-6a,7,8,9,10,12-hexahydrobenzo[e]pyrido[1,2-a][1,4]diazepin-3-yl)oxy)butanamido)-1-methyl-1H-pyrrole-2-carboxamido)phenyl)-1-methyl-1H-pyrrole-2-carboxamide]",IC50,[1],0.63 nM
same,IC50,MCF-7 (HER2−),0.289 nM
same,IC50,SK-BR-3 (HER2+++),0.086 nM
COc1cc2c(cc1OCCCC(=O)Nc1cc(C(=O)Nc3ccc(-c4cc(C(=O)Nc5ccc(N)cc5)n(C)c4)cc3)n(C)c1)N=C[C@@H]1CCCCN1C2=O [Compound 41],IC50,[2],2.64 nM
same,IC50,A549 (Lung),0.18 nM
same,IC50,BxPC3 (Pancreas),0.43 nM
same,IC50,SK-HEP-1 (Liver),0.32 nM
same,IC50,A375 (Skin),0.28 nM
same,IC50,SW480 (Colorectal),0.29 nM
same,IC50,AGS (Gastric),0.07 nM
same,IC50,SK-MEL-5 (Melanoma),0.39 nM
same,IC50,AML2 (AML),0.016 nM
same,IC50,PC3 (Prostate),0.36 nM
same,IC50,Calu-3 (Lung),0.65 nM
same,IC50,LnCap (Prostate),0.47 nM
same,IC50,"786-O (Renal Cell, CD70)",0.53 nM
same,IC50,HL60 (APML),0.009 nM
"COc1cc2c(cc1O)N=C[C@@H]1CCCCN1C2=O [Compound 106, (S)-3-Hydroxy-2-methoxy-7,8,9,10-tetrahydrobenzo[e]pyrido[1,2-a][1,4]diazepin-12(6aH)-one]",DNA stabilisation (FRET melting),[3],little DNA stabilisation
"COc1cc2c(cc1OCCCC(=O)O)N=C[C@@H]1CCCCN1C2=O [Compound 107, (S)-4-((2-Methoxy-12-oxo-6a,7,8,9,10,12-hexahydrobenzo[e]pyrido[1,2-a][1,4]diazepin-3-yl)oxy)butanoic acid]",DNA stabilisation (FRET melting),[3],little DNA stabilisation
"Cn1cc(N)cc1C(=O)Nc1ccc(-c2cc(C(=O)Nc3ccc(N)cc3)n(C)c2)cc1 [Compound 148, 4-Amino-N-(4-(5-((4-aminophenyl)carbamoyl)-1-methyl-1H-pyrrol-3-yl)phenyl)-1-methyl-1H-pyrrole-2-carboxamide]",DNA stabilisation (FRET melting),[3],little DNA stabilisation
C=C1C[C@H]2C=Nc3cc(OCCCOc4cc5c(cc4OC)C(=O)N4CC(=C)C[C@H]4C=N5)c(OC)cc3C(=O)N2C1 [SJG-136],adverse effects in Phase I clinical evaluation,[4],lower-limb edema and fatigue
